Test results published in patent US6455546B2, “Method for promoting ovulation, parturition, and lactation in mammals” (Clemson University, priority 1996, dated 2002).
“And” between values parts separate entries of the source, which are not always exact repeats. Equal entries are not always repeated. “Also recorded” adds a separate entry of the source.

Key:
animals = animals exposed to other D2 receptor antagonists; cited from earlier work
agalactic mares = test: Preparation for parturition, udder development and lactation in agalactic mares; format: in vivo;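 note: treated mares were free of fescue toxicosis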
quarter horse mares = test: Daily feed intake of mares; format: in vivo
Description: Ten quarter horse mares were housed in individual pens and fed a standard feed concentrate weighing 0.5% of each mares' initial body weight at approximately 8:00 A.M. each day during the study. In addition, hay was fed to the mare ad libitum each day. During the night, the mares were placed in a dry lot having no access to food.

mares = test: Stimulation of follicular growth and ovulation in mares out of season
[1] = individual agalactic mares, 1.1 mg/kg per day orally, 1.1 mg/kg/day
[2] = individual mares, domperidone .55 mg/kg orally daily in molasses, January and February

SMILES | Neuroleptic side effects (animals) | Milk production (agalactic mares; horses, orally about 0.2 mg/kg to about 3.3 mg/kg of body weight) | Did Mare Have A Live Foal? (agalactic mares; individual agalactic mares, 1.1 mg/kg per day orally) | Days Before (−) or After Expected Foaling that Mare Foaled (agalactic mares; [1]) | Mare's Udder Development After Treatment Began (agalactic mares; [1]) | Was Mare Lactating Normally After Foaling? (agalactic mares; [1]) | Adverse side effects (agalactic mares; subcutaneous, amounts greater than 1.32 mg/kg) | Daily hay consumption after treatment began (quarter horse mares; each of the ten mares, 1.1 mg/kg orally daily) | Avg. Hay Consumption After Treatment (quarter horse mares; individual mares, 1.1 mg/kg orally daily for two weeks, hay ad libitum, 1.1 mg/kg) | Mares treated that ovulated (mares; 0.55 mg/kg orally daily, only two of nine control mares ovulated) | Date of Ovulation (mares; [2]) | No. of Days of Treatment Before Ovulation (mares; [2]) | Neurological side effects (mares; mares, 0.55 mg/kg orally daily, during the study)
CCN1CCCC1CNC(=O)c1cc(S(N)(=O)=O)ccc1OC (centres unmarked) [sulpiride] | neuroleptic side effects have been observed |  |  |  |  |  |  |  |  |  |  |  | 
O=c1[nH]c2ccccc2n1CCCN1CCC(n2c(=O)[nH]c3cc(Cl)ccc32)CC1 [domperidone] |  | stimulated | Yes | −1 Days and +8 Days and +15 Days and +14 Days and 0 Days and −3 Days (2×) and +3 Days and −2 Days and +12 Days | Increased Weekly; also recorded: Developed Adequately; also recorded: Very Slight; also recorded: Gradual Development; also recorded: Normal Development; also recorded: No Response; also recorded: Immediate; also recorded: Dripping Milk 5th Day | Yes (11×) and No. but drug | without any adverse side effects | increased | 13.0 lbs and 12.2 lbs and 14.1 lbs (2×) and 13.2 lbs and 14.2 lbs and 12.3 lbs and 13.5 lbs and 15.0 lbs and 12.1 lbs | nine of the ten | Feb. 9; also recorded: Feb. 6; also recorded: Feb. 12; also recorded: Feb. 8; also recorded: Feb. 15; also recorded: Feb. 5; also recorded: Feb. 7; also recorded: Feb. 13; also recorded: d/n ovulate; also recorded: Feb. 10 | 18 Days (2×) and 21 Days and 17 Days and 24 Days and 14 Days and 16 Days and 22 Days and d/n ovulate and 19 Days | No neurological side effects were observed
CCN(CC)CCNC(=O)c1cc(Cl)c(N)cc1OC [metoclopramide] | neuroleptic side effects have been observed |  |  |  |  |  |  |  |  |  |  |  | 
